Read-outs that look alike come from different tables or passages of the source.
Legend:
B. subtilis 168a = test: MIC/MBC microbroth dilution (EUCAST); type: cell-based, Bacillus subtilis
Experimental: (§1) Minimum inhibitory concentrations (MIC values) were obtained using the microbroth dilution method as stated in the EUCAST guidelines. Tests were conducted on cation adjusted Mueller–Hinton broth (caMHB) or agar (caMHA). These were prepared and stored following the manufacturer’s guidelines. Biological organisms were prepared via growth on either Luria–Bertani (LB) or cation adjusted Mueller–Hinton agar plates. These were grown for 24 h at 37 °C, except for Micrococcus luteus where MICs took longer to grow and as a consequence were read after 48 h once a clear positive control could be observed. For the MIC experiment, the bacteria were prepared using the McFarland 0.5 standard and diluted 1 in 100 or 1 in 10 in caMHB following EUCAST and CSLI guidelines for the preparation of bacteria. Testing of the compounds using the microbroth dilution method took place in 96-well plates. Serial 2-fold dilutions of compounds in caMHB covering a range from 256 µg/mL to 0.25 µg/mL were prepared. Bacteria preparations (McFarland) were added to the compound dilutions, further halving the compound concentrations. The plate was then incubated for 18 h at 37 °C. Controls for the MIC experiments included a bacterial growth (positive) control of bacteria and caMHB only and a media only (negative) control. After incubation, the plates were read, whereby the positive control of bacteria was visible and the negative control was clear of contamination. The last clear well, where there is no growth of bacteria, was counted as the MIC value. […] The lowest concentration without any bacterial growth was counted as the MBC value. The following pathogens were used: Pseudomonas aeruginosa NCTC 13437, Escherichia coli NCTC 13353, Bacillus subtilis 168a, Serratia marcescens NCTC 9940, Micrococcus luteus ATCC 10240, Staphylococcus aureus JE2 USA 300, Acinetobacter baumannii ATCC 19606, and Klebsiella pneumoniae ATCC 700603. A concentration range of 256 µg/mL to 0.25 µg/mL of a combination of ciprofloxacin and meropenem against E. coli 25922 was used as an antibiotic control to ensure correct dilution and performance of the assay.

P. aeruginosa NCTC 13437 = test: MIC/MBC microbroth dilution (EUCAST); type: cell-based; conditions: Pseudomonas aeruginosa, NCTC13437
Experimental: as §1

[1] = tested on: K. pneumoniae ATCC 700603; test: MIC/MBC microbroth dilution (EUCAST); type: cell-based; conditions: Klebsiella pneumoniae, ATCC700603
Experimental: as §1

S. marcescens NCTC 9940 = test: MIC/MBC microbroth dilution (EUCAST); type: cell-based; conditions: Serratia marcescens, NCTC9940
Experimental: as §1

M. luteus ATCC 10240 = test: MIC/MBC microbroth dilution (EUCAST); type: cell-based, Micrococcus luteus
Experimental: as §1

E. coli NCTC 13353 = test: MIC/MBC microbroth dilution (EUCAST); type: cell-based, Escherichia coli; conditions: for MBC: NCTC13353
Experimental: as §1

P. falciparum NF54 = test: In vitro microplate assay against P. falciparum NF54 (3H-hypoxanthine incorporation); type: cell-based, Plasmodium falciparum; conditions: read-out: P.f.NF54 IC50
Experimental: Serial drug dilutions of eleven 3-fold dilution steps covering a range from 100 to 0.002 µg/mL were prepared. […] After 48 h of incubation time, 0.05 mL of ^3H-hypoxanthine (=0.5 µCi) was added to each well of the plate. The plates were incubated for a further 24 h under the same conditions. Plates were then harvested using a BetaplateTM cell harvester (Wallac, Zurich, Switzerland). Red blood cells were transferred onto a glass fiber filter and then washed with distilled aqua demin. The dried filters were inserted into a plastic foil with 10 mL of scintillation fluid and counted in a BetaplateTM liquid scintillation counter (Wallac, Zurich, Switzerland). IC50 values were calculated from sigmoidal inhibition curves by linear regression using Microsoft Excel. […] Louis, MO, USA) was used as control.

[2] = Parallel artificial membrane permeability assay (PAMPA); conditions: PAMPA, PBS pH 7.4, 200 µM, 5 h, room temperature; for Papp at 5 h, 200 µM: pH 7.4, Pe
Experimental: With the high-throughput PAMPA the newly synthesized compounds were tested for their passive permeability through cell membranes without the influence of efflux pumps or transporter proteins. The assay was performed using a Corning® Gentest^TM Precoated PAMPA Plate System (Corning, Glendale, AZ, USA) with 96-well polystyrene plates. The bottom of the acceptor plate consists of a porous membrane, whereby the pores are lined with a lipid–oil–lipid triple layer. Stock solutions of each test compound at 10 mM were prepared in DMSO or methanol and diluted with phosphate-buffered saline (PBS at a pH of 7.4) to a final concentration of 200 µM. […] The donor plate (bottom plate) was filled with the compound solutions, whereby all compounds were tested in quadruplicates. Each well of the acceptor plate (top plate) was filled with PBS buffer. Donor and acceptor plates were combined and incubated at room temperature for 5 h. After that, the plates were separated and 150 µL of each well of both plates were transferred to 96-well UV plates (Greiner Bio-One). Absorption at different wavelengths covering a range from 200 to 300 nm was measured using a SpectraMax M3 UV plate reader. […] The plates were analyzed at the wavelength where the R2 value of the calibration curve was higher than 0.99 [47].
Recovery of compounds from donor and acceptor wells (mass retention) was calculated as shown in the equation below. Data were only accepted when recovery exceeded 70%. The equation is as follows:(3) R=1−[cDt×VD+cAt×VA]/(c0×VD) where

A. baumannii ATCC 19606 = test: MIC/MBC microbroth dilution (EUCAST); type: cell-based, Acinetobacter baumannii; conditions: for MBC: ATCC19606
Experimental: as §1

[3] = Resazurin-based in vitro cytotoxicity with HepG2 cells; type: cell-based, human; conditions: HepG2 cells; human hepatocarcinoma cells, 48 h
Experimental: The HepG2 cells were washed with DPBS (Dulbecco’s PBS without calcium and magnesium, Gibco, Cat #21600-044) and trypsinized with trypsin solution in DPBS. Trypsinization was stopped by adding culture medium, and after being stained with Trypan Blue (SORS Ukraine) cells were counted using a counting chamber (Hausser Scientific, Cat #3500). The cell suspension was placed in a falcon tube containing plating medium DMEM/High glucose with 1% fetal bovine serum, 100 units/mL penicillin, and 100 µg/mL streptomycin. Cells at a density of 250,000 cells/mL were seeded in sterile 384-well plates (Greiner Bio-One, Cat #781091) in a volume of […] and incubated at 37 °C and 5% CO2. Serial dilutions of ten 3-fold dilution steps of test and reference compounds covering a range from 100.0 to 0.005 µM were added to the wells, followed by incubation at 37 °C and 5% CO2 for 48 h. Then, resazurin (50 µM final concentration) was added and plates were incubated for another 3 h. The plates were read with a SpectraMax microplate reader (Molecular Devices Cooperation, Sunnyvale, CA, USA)) using an extinction wavelength of 555 nm and an emission wavelength of 570 nm. IC50 values were calculated using GraphPad Prism 9.0 charting software. Doxorubicin (Sigma Aldrich D1515) was used as control.

[4] = Resazurin-based in vitro cytotoxicity with L-6 cells; type: cell-based, rat; conditions: rat
Experimental: Serial drug dilutions of eleven 3-fold dilution steps covering a range from 100 to 0.002 µg/mL were prepared. After 70 h of incubation, the plates were inspected under an inverted microscope to assure growth of the controls and sterile conditions. […] The plates were read with a Spectramax Gemini XS microplate fluorometer (Molecular Devices Cooperation, Sunnyvale, CA, USA) using an excitation wavelength of 536 nm and an emission wavelength of 588 nm. IC50 values were calculated by linear regression from the sigmoidal dose–inhibition curves using SoftmaxPro software Version 8.2.1 (Molecular Devices Cooperation, Sunnyvale, CA, USA). Podophyllotoxin (Sigma P4405) was used as control.

S. aureus JE2 USA 300 = test: MIC/MBC microbroth dilution (EUCAST); type: cell-based; conditions: Staphylococcus aureus, USA300, S. aureus JE2 USA 300
Experimental: as §1

[5] = Bacillus subtilis, 168A, read-out: MIC
[6] = Micrococcus luteus, ATCC10240, M. luteus ATCC 10240, read-out: MBC
[7] = Micrococcus luteus, ATCC10240, M. luteus ATCC 10240, read-out: MIC
[8] = Escherichia coli, NCTC13353, read-out: MIC
[9] = Plasmodium falciparum, NF54, chloroquine-sensitive strain NF54, erythrocytic stages
[10] = Acinetobacter baumannii, ATCC19606, read-out: MIC

Row | SMILES | MIC (B. subtilis 168a; [5]) [µg/mL] | MBC (P. aeruginosa NCTC 13437) [µg/mL] | MIC (P. aeruginosa NCTC 13437) [µg/mL] | MBC [1] [µg/mL] | MIC [1] [µg/mL] | MBC (S. marcescens NCTC 9940) [µg/mL] | MIC (S. marcescens NCTC 9940) [µg/mL] | MBC (M. luteus ATCC 10240; [6]) [µg/mL] | MIC (M. luteus ATCC 10240; [7]) [µg/mL] | MBC (E. coli NCTC 13353; Escherichia coli) [µg/mL] | MIC (E. coli NCTC 13353; [8]) [µg/mL] | IC50 (P. falciparum NF54; [9]) [µM] | Papp at 5 h, 200 µM [2] [×10⁻⁶ cm/s] | MBC (A. baumannii ATCC 19606; Acinetobacter baumannii) [µg/mL] | MIC (A. baumannii ATCC 19606; [10]) [µg/mL] | IC50 at 48 h [3] [µM] | IC50 at 70 h [4] [µM] | MBC (B. subtilis 168a; Bacillus subtilis, 168A) [µg/mL] | MBC (S. aureus JE2 USA 300) [µg/mL] | MIC (S. aureus JE2 USA 300) [µg/mL] | other results
1 | O=C(Nc1ccccc1N1CCNCC1)c1cccc(C(F)(F)F)c1Sc1ccc(F)cc1 [Compound 55, 2-[(4-Fluorophenyl)sulfanyl]-N-[2-(piperazin-1-yl)phenyl]-3-(trifluoromethyl)benz-amide] | 16 to 64 | > 256 | 256 | > 256 | > 256 | > 256 | 256 | 16 to 64 | 16 to 64 | 64 | 32 to 64 | 0.692 | 4.41 | 64 | 32 to 64 | 4.6 | 7.06 | – | – | – | MIC (B. subtilis 168a): 32 µg/mL; MBC (M. luteus ATCC 10240; M. luteus ATCC 10240): 16 µg/mL; MIC (M. luteus ATCC 10240; M. luteus ATCC 10240): 16 µg/mL; MIC (E. coli NCTC 13353): 64 µg/mL; IC50 (P. falciparum NF54; chloroquine-sensitive strain NF54, erythrocytic stages): 0.69 µM; Pe [2]: 6.51 10^−6 cm/s; MIC (A. baumannii ATCC 19606): 32 µg/mL
2 | O=C(c1cccc(C(F)(F)F)c1Oc1ccc(F)cc1)N1CCOCC1 [Compound 51, [2-(4-Fluorophenoxy)-3-(trifluoromethyl)phenyl](morpholin-4-yl)methanon] | 256 | > 256 | > 256 | > 256 | > 256 | > 256 | > 256 | 128 | 256 | > 256 | > 256 | 81.1 | 10.4 | 256 | 256 | > 100 | 154 | > 256 | > 256 | > 256 | –
3 | CN1CCN(C(=O)c2cccc(C(F)(F)F)c2Oc2ccc(F)cc2)CC1 [Compound 49, [2-(4-Fluorophenoxy)-3-(trifluoromethyl)phenyl](4-methylpiperazin-1-yl)methanon] | 256 | > 256 | 256 | > 256 | > 256 | > 256 | > 256 | 256 | 256 | > 256 | 256 | 55.2 | 8.5 | > 256 | 256 | > 100 | 137 | > 256 | > 256 | > 256 | –
4 | O=C(Nc1ccc(N2CCNCC2)cc1)c1cccc([N+](=O)[O-])c1Oc1ccc(F)cc1 [Compound 61, 2-(4-Fluorophenoxy)-3-nitro-N-[4-(piperazin-1-yl)phenyl]benzamide] | 256 | > 256 | > 256 | > 256 | 256 | > 256 | > 256 | 128 | 128 | > 256 | > 256 | 4.1 | 8.36 | > 256 | 256 | 29.8 | 43.8 | > 256 | > 256 | 128 | –
